From PubChem BioAssay (NCI)
Where “and” joins values, the source holds several entries; their conditions need not be identical. Equal entries are not always repeated.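 Five compound concentrations were applied to cells in 96-well plates for 48 hours; endpoints were derived by simple linear interpolation of the resulting dose-response curve. GI50 marks 50% less growth. TGI denotes the concentration required for complete inhibition of growth.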

How the values were obtained:
Test in all cases: inhibition of tumour cell growth, NCI panel, 48 h
MCF7 breast = test system: MCF7 breast
HS 578T breast = test system: HS 578T breast
BT-549 breast = test system: BT-549 breast
PC-3 prostate = test system: PC-3 prostate
MDA-MB-231 breast = test system: MDA-MB-231 breast
T-47D breast = test system: T-47D breast

Structure (SMILES) | GI50 (MCF7 breast) | TGI (MCF7 breast) | GI50 (HS 578T breast) | TGI (HS 578T breast) | GI50 (BT-549 breast) | TGI (BT-549 breast) | GI50 (PC-3 prostate) | TGI (PC-3 prostate) | GI50 (MDA-MB-231 breast) | TGI (MDA-MB-231 breast) | GI50 (T-47D breast) | TGI (T-47D breast)
CN1CCN(CCCOc2cccc3nc(Nc4cc(Cl)cc(Cl)c4)ccc23)CC1 | 1380 nM | 2.94 µM | 2.5 µM | 7.07 µM | 3.43 µM | 13.9 µM | 1760 nM | 3.29 µM | 1570 nM | 3.12 µM | 1790 nM | 3.76 µM
CCCCCC/C=C/C#CCCCCCCCC(=O)O | – | > 100 µM | – | > 100 µM | – | > 100 µM | – | > 100 µM | – | > 100 µM | – | > 100 µM
Nc1nc(=O)n(C2CC(O)C(CO)O2)cc1F (stereo unspecified) | 2.35 nM | > 100 µM | 55.2 µM | > 100 µM | – | > 100 µM | 1470 nM | > 100 µM | 10700 nM | > 100 µM | > 100000 nM | > 100 µM
COc1ccccc1-n1cnc(N)c1C(=O)c1cc(OC)c(OC)c(OC)c1 | 2490 nM | > 100 µM | 2.16 µM | 7.69 µM | 3.55 µM | 66.2 µM | 3510 nM | > 100 µM | 5930 nM | > 100 µM | – | –
COc1ccc(C(=O)/C=C/c2sc(Cl)nc2Cl)cc1 | 1750 nM | 4 µM | 3.29 µM | 18.6 µM | 0.332 µM | 1.7 µM | 2830 nM | 11.6 µM | 1330 nM | 4.64 µM | 2930 nM | 9.23 µM
O=C(NC1CCN(Cc2ccccc2)CC1)c1cc(-c2cccnc2)nc2ccc(Cl)cc12 | 4780 nM | > 100 µM | 9.9 µM | 39.4 µM | 24.8 µM | > 100 µM | 6160 nM | > 100 µM | 2470 nM | 13.1 µM | 3700 nM | 53.1 µM
C[C@@H]1CC[C@H]2[C@@H](C)C(O)O[C@@H]3O[C@]4(C)CC[C@@H]1[C@]32OO4 (stereo partly specified) | 1660 nM | 20.4 µM | 1.33 µM | 42.2 µM | 0.721 µM | 45.4 µM | 66.2 nM | > 43.3 µM | 6160 nM | > 56.8 µM | 285 nM | –
Cc1c2cnccc2c(C)c2c1c1cc(O)ccc1n2C(C)C | 1370 nM | 4.82 µM | 1.23 µM | 4.55 µM | 1.11 µM | 2.73 µM | 1120 nM | 3.71 µM | 1510 nM | 7.58 µM | 1980 nM | 6.27 µM
CCn1cnc(C[C@H](NC(=O)[C@H](CCCCNC(=O)Nc2cc(C(F)(F)F)cc(C(F)(F)F)c2)NC(=O)Nc2cc(C(F)(F)F)cc(C(F)(F)F)c2)C(=O)OC)c1 | 3510 nM | > 10 µM | 4.49 µM | > 10 µM | > 10 µM | > 10 µM | 2820 nM | > 10 µM | 2580 nM | 6.37 µM | 4830 nM | > 10 µM
CN(C)c1ccc(/C=C/C(=O)c2ccc(Nc3nc(Nc4ccc(F)cc4)nc(Nc4ccc(F)cc4)n3)cc2)cc1 | 17600 nM | > 100 µM | 14.4 µM | 51.9 µM | 13.5 µM | 43.6 µM | 6560 nM | 80.2 µM | 13500 nM | 46.4 µM | 6730 nM | 51.7 µM
COc1ccc(-c2nn(-c3cccc(Cl)c3)cc2/C=C2\NC(=S)N(c3ccc(Cl)cc3)C2=O)cc1 | 5600 nM | > 25 µM | 4.14 µM | 24.1 µM | 4.46 µM | 11.6 µM | 5370 nM | 21.6 µM | 3330 nM | 11.5 µM | 3610 nM | 9.7 µM
Clc1ccc(-c2cc(-c3ccccc3)nc(N3CCN(CCCNc4ccnc5cc(Cl)ccc45)CC3)n2)cc1 | 1630 nM | 3.81 µM | 1.86 µM | 4.38 µM | 1.68 µM | 3.23 µM | – | – | 1670 nM | 3.19 µM | 1140 nM | 3.38 µM
C[C@@H](C1CC[C@H]2[C@@H]3[C@@H]4O[C@@H]4[C@@]4(O)CC=CC(=O)[C@]4(C)[C@H]3C[C@H](O)[C@]12C)[C@H]1C[C@]2(C)O[C@]2(C)C(=O)O1 (stereo partly specified) | – | > 100 µM | – | > 100 µM | – | – | – | > 100 µM | – | > 100 µM | – | > 100 µM
Cc1ccc2c(c1)[n+](=O)c(C(=O)c1cccs1)c(C(F)(F)F)n2[O-] | 875 nM and 456 nM | 3.79 µM and 21.5 µM | – | – | 0.603 µM | 1.97 µM | 528 nM and 1380 nM | – | 1010 nM and 1080 nM | 2.8 µM and 6.37 µM | 1550 nM and 183 nM | 9.38 µM and 7.9 µM
Cc1cc2c(cc1Cl)SC(N(c1ccccc1Cl)S(=O)(=O)c1ccc(Br)s1)=NS2(=O)=O | 8880 nM | 28.8 µM | 18 µM | 41.4 µM | – | – | 12500 nM | 29.7 µM | 18500 nM | 61.8 µM | 4950 nM | 23 µM
